Data taken from US8916570B2 (The United States of America, as represented by the …, priority 2008, dated 2014).

What was measured:
[1] = biological target: T1, human A1 adenosine receptor (Homo sapiens, UniProt P30542); experiment: Radioligand binding, human A1 AR, CHO membranes (Table 1); settings: for A1 % inhib.: species H (human), percent in parentheses, concentration not marked
T1 sequence (P30542 1-326): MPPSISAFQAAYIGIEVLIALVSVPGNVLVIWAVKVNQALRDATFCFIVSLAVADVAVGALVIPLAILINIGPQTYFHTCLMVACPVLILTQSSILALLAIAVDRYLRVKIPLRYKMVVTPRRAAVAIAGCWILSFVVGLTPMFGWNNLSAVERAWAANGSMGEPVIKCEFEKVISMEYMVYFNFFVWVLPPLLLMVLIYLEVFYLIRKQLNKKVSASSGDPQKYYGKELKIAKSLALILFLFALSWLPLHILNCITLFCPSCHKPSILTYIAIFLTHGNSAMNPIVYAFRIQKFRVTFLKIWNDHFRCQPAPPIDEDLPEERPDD

[2] = biological target: T2, human A3 adenosine receptor (Homo sapiens, UniProt P0DMS8); experiment: [125I]I-AB-MECA binding, human A3 AR, CHO membranes (Table 1); settings: for Ki: A3 Ki, species H (human); for Selectivity A1/A3: human
T2 sequence (P0DMS8 1-318): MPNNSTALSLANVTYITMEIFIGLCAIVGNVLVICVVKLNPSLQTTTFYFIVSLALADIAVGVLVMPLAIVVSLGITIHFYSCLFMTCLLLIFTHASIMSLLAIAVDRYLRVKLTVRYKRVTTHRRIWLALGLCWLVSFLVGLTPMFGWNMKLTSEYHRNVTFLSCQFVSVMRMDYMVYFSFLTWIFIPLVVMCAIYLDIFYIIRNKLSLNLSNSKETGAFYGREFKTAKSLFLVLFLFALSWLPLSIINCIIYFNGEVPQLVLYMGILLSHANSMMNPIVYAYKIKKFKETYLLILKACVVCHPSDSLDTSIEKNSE

[3] = biological target: human A2A adenosine receptor (Homo sapiens, UniProt P29274); experiment: Radioligand binding, human A2A AR (Table 1); settings: for inhibition at 10 µM: read-out: A2A % inhib.
human A2A adenosine receptor, sequence (P29274 whole entry): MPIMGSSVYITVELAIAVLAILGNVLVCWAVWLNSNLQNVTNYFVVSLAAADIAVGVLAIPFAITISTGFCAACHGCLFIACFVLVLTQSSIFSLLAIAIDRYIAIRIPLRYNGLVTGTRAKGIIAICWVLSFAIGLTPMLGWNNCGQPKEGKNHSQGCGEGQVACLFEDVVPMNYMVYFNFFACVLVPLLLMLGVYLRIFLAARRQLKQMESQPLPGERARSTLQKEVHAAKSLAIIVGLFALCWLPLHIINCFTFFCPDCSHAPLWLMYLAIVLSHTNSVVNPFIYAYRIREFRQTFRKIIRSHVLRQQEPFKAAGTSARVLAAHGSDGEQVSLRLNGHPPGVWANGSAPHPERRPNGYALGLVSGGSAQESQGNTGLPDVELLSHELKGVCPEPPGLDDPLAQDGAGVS

[4] = biological target: mouse A2A adenosine receptor (Mus musculus, UniProt Q60613); experiment: Competition radioligand binding, mouse A2A AR, HEK293 membranes (Table 1); settings: for inhibition at 100 µM: read-out: A2A % inhib.
mouse A2A adenosine receptor, sequence (Q60613 whole entry): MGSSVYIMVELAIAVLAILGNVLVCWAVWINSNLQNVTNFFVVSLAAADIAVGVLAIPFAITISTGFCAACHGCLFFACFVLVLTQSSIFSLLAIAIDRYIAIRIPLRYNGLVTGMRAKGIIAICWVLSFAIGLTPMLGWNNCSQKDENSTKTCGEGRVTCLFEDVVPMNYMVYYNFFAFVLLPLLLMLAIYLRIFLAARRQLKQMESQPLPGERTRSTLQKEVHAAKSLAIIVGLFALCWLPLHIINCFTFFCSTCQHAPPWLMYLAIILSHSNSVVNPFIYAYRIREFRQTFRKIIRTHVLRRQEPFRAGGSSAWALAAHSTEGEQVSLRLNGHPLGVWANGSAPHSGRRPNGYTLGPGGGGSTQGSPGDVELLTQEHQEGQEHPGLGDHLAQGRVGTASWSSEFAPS

[5] = biological target: T3, mouse A1 adenosine receptor (Mus musculus, UniProt Q60612); experiment: Competition radioligand binding, mouse A1 AR, HEK293 membranes (Table 1)
T3 sequence (Q60612 1-326): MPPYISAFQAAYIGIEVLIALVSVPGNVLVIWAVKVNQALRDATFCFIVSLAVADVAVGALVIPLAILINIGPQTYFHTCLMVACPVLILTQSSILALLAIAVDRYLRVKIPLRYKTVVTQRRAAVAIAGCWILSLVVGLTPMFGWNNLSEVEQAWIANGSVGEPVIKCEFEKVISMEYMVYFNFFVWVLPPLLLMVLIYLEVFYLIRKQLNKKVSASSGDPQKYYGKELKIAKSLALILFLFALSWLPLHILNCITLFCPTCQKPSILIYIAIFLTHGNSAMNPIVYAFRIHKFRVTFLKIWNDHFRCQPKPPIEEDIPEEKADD

[6] = biological target: T4, mouse A3 adenosine receptor (Mus musculus, UniProt Q61618); experiment: Competition radioligand binding, mouse A3 AR, HEK293 membranes (Table 1); settings: for Ki: A3 Ki, species M (mouse), [125I]I-AB-MECA; for Selectivity A1/A3: mouse
T4 sequence (Q61618 1-319): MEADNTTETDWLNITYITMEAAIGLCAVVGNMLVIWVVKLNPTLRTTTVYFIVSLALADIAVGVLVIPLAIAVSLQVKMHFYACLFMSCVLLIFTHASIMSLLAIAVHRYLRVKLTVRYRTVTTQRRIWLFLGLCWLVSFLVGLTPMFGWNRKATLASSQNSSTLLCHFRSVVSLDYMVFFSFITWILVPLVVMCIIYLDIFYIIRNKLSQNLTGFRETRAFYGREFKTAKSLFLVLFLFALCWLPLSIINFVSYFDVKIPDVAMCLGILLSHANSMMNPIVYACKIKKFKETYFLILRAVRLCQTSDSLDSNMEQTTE

human A3AR = biological target: T5, human A3AR (Homo sapiens, UniProt P0DMS8); experiment: Inhibition of forskolin-stimulated cyclic AMP production in AR transfected CHO cells (Table 1); type: cell-based; settings: CHO; read-out: % Efficacy at the human A3 AR
T5 construct: expressed in transfected cells; host or cells: CHO
T5 sequence (P0DMS8 1-318): T2 sequence (P0DMS8 1-318)

Structure (SMILES)	A1 % inhib. [1]	Ki [2]	Ki [3]	inhibition at 100 µM [4]	inhibition at 10 µM [3]	Ki [1]	Ki [5]	Ki [6]	Selectivity A1/A3 [6]	further results
CCN1C(=CC=CC=CC2=[N+](CCCCCC(=O)NCCNC(=O)CCC#Cc3nc(NCc4cccc(Cl)c4)c4ncn(C5C(O)C(O)C6(C(=O)NC)CC56)c4n3)c3ccc(S(=O)(=O)[O-])cc3C2(C)C)C(C)(C)c2cc(S(=O)(=O)O)ccc21 (stereo not drawn) [Compound 44, (1′S,2′R,3′S,4′S,5′S)-4′-[6-(3-Chlorobenzylamino)-2-(N-Cyanine(β-aminoethylaminocarbonyl)-1-butynyl)-9-yl]-2′,3′-dihydroxybicyclo[3.1.0]hexane-1′-carboxylic acid N-methylamide]	(10 ± 4%)									
CNC(=O)C12CC1C(n1cnc3c(NCc4cccc(Cl)c4)nc(C#C[Si](C)(C)C)nc31)C(O)C2O (stereo not drawn) [Compound 4, (1′S,2′R,3′S,4′S,5′S)-4′-[6-(3-Chlorobenzylamino)-2-trimethylsilylethynyl-9-yl]-2′,3′-dihydroxybicyclo[3.1.0]hexane-1′-carboxylic acid N-methylamide]		0.98 ± 0.14 nM		20%	52%	160 ± 40 nM	159 ± 22 nM	4.46 ± 0.57 nM	35.6	Selectivity A1/A3 [2]: 160
CNC(=O)C12CC1C(n1cnc3c(NCC(c4ccccc4)c4ccccc4)nc(Cl)nc31)C(O)C2O (stereo not drawn) [Compound 18]							6.83 ± 1.5 nM	1.67 ± 0.09 nM	4.1	Ki [4]: 1810 ± 581 nM
CNC(=O)C12CC1C(n1cnc3c(NCc4cccc(Cl)c4)nc(SC)nc31)C(O)C2O (stereo not drawn) [Compound 20]		1.5 nM	10000 nM	32%		610 nM	98.9 ± 18.8 nM	1.19 ± 0.09 nM	83	
CNC(=O)C12CC1C(n1cnc3c(NCc4cccc(C#CCCCC(=O)O)c4)nc(Cl)nc31)C(O)C2O (stereo not drawn) [Compound 9]				5%	14%					
CNC(=O)C12CC1C(n1cnc3c(NCc4cccc(C#CCCCC(=O)NCCN)c4)nc(Cl)nc31)C(O)C2O (stereo not drawn) [Compound 10]		5.21 nM		39%	58%	271 ± 23 nM	151 ± 18 nM	11.9 ± 2.4 nM	13	Selectivity A1/A3 [2]: 52
CNC(=O)C12CC1C(n1cnc3c(NCc4cccc(Cl)c4)nc(C#CCCCC(=O)OC)nc31)C(O)C2O (stereo not drawn) [Compound 6, (1′S,2′R,3′S,4′S,5′S)-4′-[6-(3-Chlorobenzylamino)-2-(5-methoxycarbonyl-1-pentynyl)-9-yl]-2′,3′-dihydroxybicyclo[3.1.0]hexane-1′-carboxylic acid N-methylamide]				50%	49%	482 ± 23 nM	1340 ± 330 nM	4.65 ± 0.53 nM		
CNC(=O)C12CC1C(n1cnc3c(NCc4cccc(Cl)c4)nc(C#CCCC(=O)NCCNCCN)nc31)C(O)C2O (stereo not drawn) [Compound 41]	(14 ± 8%)	15.4 ± 4.4 nM	890 ± 110 nM							
CNC(=O)C12CC1C(n1cnc3c(NCc4cccc(Cl)c4)nc(C#CCCC(=O)NCCN)nc31)C(O)C2O (stereo not drawn) [Compound 37, (1′S, 2′R, 3′S, 4′S, 5′S)-4′-[6-(3-Chlorobenzylamino) 2-(4-(β-aminoethylaminocarbonyl)-1-butynyl)-9-yl]-2′,3′-dihydroxybicyclo[3.1.0]hexane-1′-carboxylic acid N-methylamide]	(25 ± 12%)	2.5 ± 0.5 nM	550 ± 83 nM							Selectivity A1/A3 [2]: up to 1900
CNC(=O)C12CC1C(n1cnc3c(NCc4cccc(Cl)c4)nc(C#CCCC(=O)NCCCN)nc31)C(O)C2O (stereo not drawn) [Compound 39, (1′S, 2′R, 3′S, 4′S, 5′S)-4′-[6-(3-Chlorobenzylamino)-2-(4-(β-aminopropylaminocarbonyl)-1-butynyl)-9-yl]-2′,3′-dihydroxybicyclo[3.1.0]hexane-1′-carboxylic acid N-methylamide]	(16 ± 4%)	3.1 ± 0.4 nM	979 ± 181 nM							

Further lines, with some results ahead:

A1 % inhib. [1]	Ki [2]	Ki [3]	inhibition at 100 µM [4]	inhibition at 10 µM [3]	Structure (SMILES)	Ki [1]	Ki [5]	Ki [6]	Selectivity A1/A3 [6]	further results
(13 ± 6%)	36.4 ± 5.6 nM				CNC(=O)C12CC1C(n1cnc3c(NCc4cccc(Cl)c4)nc(C#CCCC(=O)NCCNC(=O)CCCCC4SCC5NC(=O)NC54)nc31)C(O)C2O (stereo not drawn) [Compound 42, (1′S,2′R,3′S,4′S,5′S)-4′-[6-(3-Chlorobenzylamino)-2-(N-biotinyl(β-aminoethylaminocarbonyl)-1-butynyl)-9-yl]-2′,3′-dihydroxybicyclo[3.1.0]hexane-1′-carboxylic acid N-methylamide]					
		> 10000 nM	40%		CNC(=O)C12CC1C(n1cnc3c(NCc4cccc(Cl)c4)nc(I)nc31)C(O)C2O (stereo not drawn) [Compound 1]					
	149 ± 15 nM		2%	2%	CNC(=O)C12CC1C(n1cnc3c(NOC)nc(Cl)nc31)C(O)C2O (stereo not drawn) [Compound 21, (1′S,2′R,3′S,4′S,5′S)-4′-[6-Methoxyamino-2-chloropurin-9-yl]-2′,3′-dihydroxybicyclo[3.1.0]hexane-1′-carboxylic acid N-methylamide]	265 ± 45 nM	1160 ± 130 nM	877 ± 149 nM	1.3	Selectivity A1/A3 [2]: 1.8
			8%	43%	CNC(=O)C12CC1C(n1cnc3c(NCc4cccc(Cl)c4)nc(C#CCCCC(=O)O)nc31)C(O)C2O (stereo not drawn) [Compound 7, (1′S,2′R,3′S,4′S,5′S)-4′-[6-(3-chlorobenzylamino)-2-(5-hydroxycarbonyl-1-pentynyl)-9-yl]-2′,3′-dihydroxybicyclo[3.1.0]hexane-1′-carboxylic acid N-methylamide]					
(21 ± 6%)	3.4 ± 0.7 nM	277 ± 33 nM			CNC(=O)C12CC1C(n1cnc3c(NCc4cccc(Cl)c4)nc(C#CCCCCC(=O)NCCN)nc31)C(O)C2O (stereo not drawn) [Compound 38, (1′S,2′R,3′S,4′S,5′S)-4′-[6-(3-Chlorobenzylamino)-2-(6-(β-aminoethylaminocarbonyl)-1-hexynyl)-9-yl]-2′,3′-dihydroxybicyclo[3.1.0]hexane-1′-carboxylic acid N-methylamide]					
	61.1 ± 35.8 nM				CNC(=O)C12CC1C(n1cnc3c(NCc4cccc(Cl)c4)nc(C#CCCC(=O)O)nc31)C(O)C2O (stereo not drawn) [Compound 33]					Emax at 10 µM (human A3AR): 106 ± 17.7%
			14%	35%	CNC(=O)C12CC1C(n1cnc3c(NCc4cc(OC)ccc4OC)nc(I)nc31)C(O)C2O (stereo not drawn) [Compound 2, (1′S,2′R,3′S,4′S,5′S)-4′-[6-(2,5-Dimethoxybenzylamino)-2-iodopurin-9-yl]-2′,3′-dihydroxybicyclo[3.1.0]hexane-1′-carboxylic acid N-methylamide]					
(5 ± 3%)	12.4 ± 1.8 nM				CNC(=O)C12CC1C(n1cnc3c(NCc4cccc(Cl)c4)nc(C#CCCCCC(=O)O)nc31)C(O)C2O (stereo not drawn) [Compound 34]					
			68%	80%	CNC(=O)C12CC1C(n1cnc3c(NCc4cccc(C#CCCCC(=O)NCCNC(C)=O)c4)nc(Cl)nc31)C(O)C2O (stereo not drawn) [Compound 11]					
	2.17 ± 0.51 nM		31%	81%	CNC(=O)C12CC1C(n1cnc3c(NCc4cccc(Cl)c4)nc(C#CCCCC(=O)NCCN)nc31)C(O)C2O (stereo not drawn) [Compound 8]	454 ± 44 nM	546 ± 62 nM	8.6 ± 1.02 nM	64	Selectivity A1/A3 [2]: 209
